pIC50: −log10 of the molar value.
System: asymmetric di-methyl PABP1 in RKO cells
Assay: RKO methylation assay, In Cell Western (ICW) for asymmetric di-methyl PABP1
Type: cell-based
Conditions: Homo sapiens, RKO, Cellular potencies, ICW PABP1me2a
Procedure, shortened: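 RKO cells treated with compound for 48 h at 37 °C, then fixed, permeabilized and immunostained for asymmetric di-methyl PABP1, with DRAQ5 as DNA stain. Infrared 700/800 nm signal ratio normalized to DMSO and 20 μM reference-compound controls; IC50 from triplicate wells.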

pIC50	SMILES
> 5.30	CNC[C@@H](O)COc1ccc(Cl)c(-c2nc(OC[C@@H]3CCOC3)c(C)c(-c3c(C)noc3C)n2)c1 [Example 126-3]
> 5.30	CNC[C@@H](O)COc1ccc(Cl)c(-c2nc(N[C@@H]3CCOC3)c(C)c(-c3c(C)noc3C)n2)c1 [Example 100-3]
> 5.30	CNC[C@H](O)COc1ccc(Cl)c(-c2nc(-c3c(C)noc3C)c(C)c(N3Cc4cc(Cl)cnc4C3)n2)c1 [Example 87-3]
> 5.30	CNC[C@@H](O)COc1ccc(Cl)c(-c2nc(N[C@H]3CCN(C4CC4)C[C@H]3F)c(C)c(-c3c(C)noc3C)n2)c1 [Example 44-3]
> 5.30	CNC[C@@H](O)COc1ccc(Cl)c(-c2nc(-c3c(C)noc3C)c(C)c(N3CCC4(CC3)CN(C(=O)OC)C4)n2)c1 [Example 115-3]
> 5.30	CNC[C@H](O)COc1ccc(Cl)c(-c2nc(N[C@H]3CCN(C(=O)OC)C[C@H]3F)c(C)c(-c3c(C)noc3C)n2)c1 [Example 65-3]
> 5.30	CNC[C@@H](O)COc1ccc(Cl)c(-c2nc(-c3c(C)noc3C)c(C)c(N3CCc4ncccc43)n2)c1 [Example 199-3]
> 5.30	CCO[C@@H]1CCC[C@H]1Nc1nc(-c2cc(OC[C@H](O)CNC)ccc2F)nc(-c2c(C)noc2C)c1C [Example 191-3]
> 5.30	CNC[C@@H](O)COc1ccc(C(F)(F)F)c(-c2nc(NC3CCOCC3)c(C)c(-c3c(C)noc3C)n2)c1 [Example 200-3]
> 5.30	CNC[C@@H](O)COc1ccc(Cl)c(-c2nc(N[C@H]3C[C@@H](C)O[C@@H](C)C3)c(Cl)c(-c3c(C)noc3C)n2)c1 [Example 173-3]
> 5.30	CNCC(O)COc1ccc(Cl)c(-c2nc(NC3CCOCC3)c(C)c(-c3c(C)noc3C)n2)c1 (stereo not shown) [Example 29-3]
> 5.30	CNC[C@@H](O)COc1ccc(Cl)c(-c2nc(NC3CCOCC3)c(C)c(-c3c(C)noc3C)n2)c1 [Example 127-3]
> 5.30	CNC[C@@H](O)COc1ccc(Cl)c(-c2nc(NC3CC(F)C3)c(C)c(-c3c(C)noc3C)n2)c1 (stereo partly shown) [Example 188-3]
> 5.30	CNC[C@@H](O)COc1ccc(Cl)c(-c2nc(-c3c(C)noc3C)c(C)c(N3Cc4cnc(C5CC5)nc4C3)n2)c1 [Example 259-3]
> 5.30	CNC[C@@H](O)COc1ccc(Cl)c(-c2nc(-c3c(C)noc3C)c(C)c(N3Cc4cc(OC)cnc4C3)n2)c1 [Example 232-3]
> 5.30	CNC[C@@H](O)COc1ccc(Cl)c(-c2nc(-c3c(C)noc3C)c(Cl)c(N3Cc4nccnc4C3)n2)c1 [Example 225-3]
> 5.30	CNCC(O)COc1ccc(Cl)c(-c2nc(N[C@H]3CCC[C@@H](O)C3)c(C)c(-c3c(C)noc3C)n2)c1 (stereo partly shown) [Example 39-3]
4.70 to 5.00	CCS(=O)(=O)N1CCOC[C@@H]1CNc1nc(-c2cccc(OCC(O)CNC)c2)nc(-c2c(C)nsc2C)c1C (stereo partly shown) [Example 71-3]
> 5.30	CNC[C@@H](O)COc1ccc(Cl)c(-c2nc(NC[C@H]3CCCO3)c(Cl)c(-c3c(C)noc3C)n2)c1 [Example 215-3]
> 5.30	CCOC(=O)N1CCOC[C@@H]1CNc1nc(-c2cc(OC[C@@H](O)CNC)ccc2F)nc(-c2c(C)noc2C)c1C [Example 61-3]
> 5.30	CNC[C@@H](O)COc1ccc(Cl)c(-c2nc(-c3c(C)noc3C)c(C)c(N3CC4(CCN(CC(F)F)CC4)C3)n2)c1 [Example 283-3]
> 5.30	CNC[C@@H](O)COc1ccc(Cl)c(-c2nc(NC3CC(F)(F)C3)c(C)c(-c3c(C)noc3C)n2)c1 [Example 189-3]
> 5.30	CNC[C@H](O)COc1ccc(Cl)c(-c2nc(NCC3COCCO3)c(C)c(-c3c(C)noc3C)n2)c1 (stereo partly shown) [Example 96-3]
5.00 to 5.30	CNCC(O)COc1cccc(-c2nc(NC3CCOCC3)c(C)c(-c3c(CO)noc3C)n2)c1 (stereo not shown) [Example 256-3]

The next lines start with the molecule.

SMILES	pIC50
CNCC(O)COc1cccc(-c2nc(NCC3(C)CCOCC3)c(C)c(-c3c(C)noc3C)n2)c1 (stereo not shown) [Example 115-1a]	> 5.30
CNCC(O)COc1cccc(-c2nc(Nc3cnc(OC)nc3)cc(-c3c(C)noc3C)n2)c1 (stereo not shown) [Example 72-1a]	> 5.30
CNCC(O)COc1cccc(-c2nc(N[C@@H]3CCOC3)c(C)c(N3Cc4nc(C)sc4C3)n2)c1 (stereo partly shown) [Example 465-1a]	> 5.30
CCOC(=O)N1CCN(c2nc(-c3cccc(OCC(O)CNC)c3)nc(-c3c(C)noc3C)c2C)CC1 (stereo not shown) [Example 77-1a]	> 5.30
CNCC(O)COc1cccc(-c2nc(NC3CCOC3)c(C)c(N3CCN(C(C)=O)C[C@H]3C)n2)c1 (stereo partly shown) [Example 421-1a]	5.00 to 5.30
CNCC(O)COc1cccc(-c2nc(N[C@@H]3CCOC3)c(C)c(-c3cncc(C(=O)OC)c3)n2)c1 (stereo partly shown) [Example 340-1a]	4.70 to 5.00
CNCC(O)COc1cccc(-c2nc(NC3CCCN(C(=O)N(C)C)C3)c(C)c(-c3c(C)noc3C)n2)c1 (stereo not shown) [Example 216-1a]	> 5.30
CNCC(O)COc1cc(Cl)cc(-c2nc(C(=O)NCC3CCOCC3)cc(N(C)C3CCOCC3)n2)c1 (stereo not shown) [Example 508-1a]	> 5.30
CNCC(O)COc1cccc(-c2nc(N[C@@H]3CCOC[C@@H]3F)c(C)c(-c3c(C)noc3C)n2)c1 (stereo partly shown) [Example 271-1a]	> 5.30
CNCC(O)COc1cccc(-c2nc(-c3c(C)noc3C)cc(N3CCN(CC(F)(F)F)[C@@H](C)C3)n2)c1 (stereo partly shown) [Example 104-1a]	> 5.30
CNCC(O)COc1cccc(-c2nc(N[C@@H]3CCOC3)c(C)c(N3C[C@H]4C[C@@H]3CN4C)n2)c1 (stereo partly shown) [Example 443-1a]	4.70 to 5.00
CNC[C@@H](O)COc1cccc(-c2nc(NC3CCOCC3)c(C)c(-c3c(C)noc3C)n2)c1 [Example 56-1a]	> 5.30
CNCC(O)COc1cccc(-c2nc(C(C)=O)c(C)c(N(C)C3CCOCC3)n2)c1 (stereo not shown) [Example 544-1a]	4.70 to 5.00
CNCC(O)COc1cccc(-c2nc(N3CCN(C(=O)OC)[C@@H](C)C3)cc(N(C)C3CCOCC3)n2)c1 (stereo partly shown) [Example 581-1a]	4.70 to 5.00
CNCC(O)COc1cccc(-c2nc(N3CCN(C)[C@@H](C)C3)cc(N(C)C3CCOCC3)n2)c1 (stereo partly shown) [Example 502-1a]	> 5.30
CNCC(O)COc1cc(Cl)cc(-c2nc(-c3ccc(N(C)C)nc3)c(C)c(N(C)C3CCOCC3)n2)c1 (stereo not shown) [Example 614-1a]	4.70 to 5.00
CNCC(O)COc1cccc(-c2nc(-c3c(C)noc3C)cc(N3CC[C@H](S(C)(=O)=O)C3)n2)c1 (stereo partly shown) [Example 69-1a]	4.70 to 5.00
CNCC(O)COc1cccc(-c2nc(N[C@@H]3CCOC3)c(C)c(N3CC4CN(S(C)(=O)=O)CC4C3)n2)c1 (stereo partly shown) [Example 11-3]	5.00 to 5.30
CNCC(O)COc1cccc(-c2nc(NC[C@@H]3CN(C(=O)OC)CCO3)c(C)c(-c3c(C)noc3C)n2)c1 (stereo partly shown) [Example 306-1a]	> 5.30
CNCC(O)COc1cccc(-c2nc(N[C@H]3C[C@@H](O)C3)c(C)c(-c3c(C)noc3C)n2)c1 (stereo partly shown) [Example 256-1a]	> 5.30
CNC[C@H](O)COc1ccc(F)c(-c2nc(NC3CCN(C(=O)OC)CC3)c(C)c(-c3c(C)noc3C)n2)c1 [Example 26-3]	> 5.30
CCOC(=O)N1CCN(c2cc(-c3c(C)noc3C)nc(-c3cccc(OCC(O)CNC)c3)n2)CC1 (stereo not shown) [Example 28-1a]	> 5.30

SMILES	pIC50
CNCC(O)COc1cccc(-c2nc(NCC3(N4CC(F)(F)C4)CCOCC3)c(C)c(-c3c(C)noc3C)n2)c1 (stereo not shown) [Example 302-1a]	> 5.30
CNCC(O)COc1cccc(-c2nc(N[C@H]3CC[C@H](O)CC3)cc(-c3c(C)noc3C)n2)c1 (stereo partly shown) [Example 32-1a]	4.70 to 5.00
CNCC(O)COc1cccc(-c2nc(-c3c(C)noc3C)c(C)c(N3C[C@@H]4C[C@H]3CN4C)n2)c1 (stereo partly shown) [Example 84-1a]	> 5.30
CNCC(O)COc1cccc(-c2nc(-c3c(C)noc3C)cc(N(C)CC3CCOCC3)n2)c1 (stereo not shown) [Example 87-1a]	> 5.30
CC[C@H]1CN(c2nc(-c3cccc(OCC(O)CNC)c3)nc(-c3c(C)noc3C)c2C)CCN1C1CC1 (stereo partly shown) [Example 178-1a]	4.70 to 5.00
CNCC(O)COc1cccc(-c2nc(N[C@@H]3CCOC3)c(C)c(N3CC[C@H](N(C)C)C3)n2)c1 (stereo partly shown) [Example 368-1a]	> 5.30
CNCC(O)COc1cccc(-c2nc(N[C@@H]3CCOC3)c(C)c(-c3cncc(C#N)c3)n2)c1 (stereo partly shown) [Example 341-1a]	4.70 to 5.00
CNCC(O)COc1cccc(-c2nc(N[C@@H]3CC[C@@H](O)C3)cc(-c3c(C)noc3C)n2)c1 (stereo partly shown) [Example 44-1a]	5.00 to 5.30
CNCC(O)COc1cccc(-c2nc(-c3c(C)noc3C)cc(N3C[C@H]4C[C@@H]3CN4)n2)c1 (stereo partly shown) [Example 109-1a]	4.70 to 5.00
CCN1CCN(c2cc(-c3c(C)noc3C)nc(-c3cccc(OCC(O)CNC)c3)n2)CC1 (stereo not shown) [Example 20-1a]	5.00 to 5.30
CNCC(O)COc1cccc(-c2nc(-c3c(C)noc3C)cc(N3CCN(C)[C@H](C)C3)n2)c1 (stereo partly shown) [Example 175-1a]	5.00 to 5.30
CCS(=O)(=O)N1CC2(CN(c3nc(-c4cccc(OCC(O)CNC)c4)nc(-c4c(C)noc4C)c3C)C2)C1 (stereo not shown) [Example 16-3]	> 5.30
CNCC(O)COc1cccc(-c2nc(NC(C)C3CCOCC3)c(C)c(-c3c(C)noc3C)n2)c1 (stereo not shown) [Example 157-1a]	> 5.30
CNCC(O)COc1cccc(-c2nc(NC3CCOC3)c(C)c(N3CCN(CC(F)F)C(C)(C)C3)n2)c1 (stereo not shown) [Example 457-1a]	4.70 to 5.00
CNCC(O)COc1cccc(-c2nc(N[C@@H]3CCOC3)c(C)c(-c3cnc(OC)nc3)n2)c1 (stereo partly shown) [Example 356-1a]	4.70 to 5.00
CNC[C@@H](O)COc1cccc(-c2nc(-c3c(C)noc3C)c(C)c(-c3cn(S(C)(=O)=O)c4ncncc34)n2)c1 [Example 156-1a]	5.00 to 5.30
CNCC(O)COc1cccc(-c2nc(NC3CCOCC3)c(C)c(-c3c(C)noc3C3CC3)n2)c1 (stereo not shown) [Example 236-1a]	> 5.30
CNCC(O)COc1cccc(-c2nc(N(C)C3CCOCC3)cc(N3C[C@H]4C[C@@H]3CN4)n2)c1 (stereo partly shown) [Example 562-1a]	4.70 to 5.00
CNCC(O)COc1cc(Cl)cc(-c2nc(-c3ccnc(N(C)C)c3)cc(N(C)C3CCOCC3)n2)c1 (stereo not shown) [Example 609-1a]	4.70 to 5.00
CNCC(O)COc1cccc(-c2nc(-c3c(C)noc3C)cc(N3CCN(CC(F)(F)F)[C@H](C)C3)n2)c1 (stereo partly shown) [Example 144-1a]	> 5.30
CNCC(O)COc1cccc(-c2nc(N[C@@H]3CCN(C(=O)OC)C[C@@H]3F)c(C)c(-c3c(C)noc3C)n2)c1 (stereo partly shown) [Example 225-1a]	> 5.30
